Assay results published in article PMC11579541, “In vitro, in vivo, and in silico approaches for evaluating the preclinical DMPK profiles of ammoxetine, a novel chiral serotonin and norepinephrine reuptake inhibitor” (Frontiers in Pharmacology, 2024).
≈ marks a conversion by molar mass, not a printed value.

How the values were obtained:
MTT cytotoxicity assay = type: cell-based, canine; conditions: dog, MDCK-MDR1 cells; 0–20 μg/mL, 3 h; read-out: cellular inhibition rate
Description: (§1) MDCK-MDR1 cells at passage 17 were cultured in DMEM supplemented with 10% FBS, 1% glutamine, 100 U/mL penicillin/streptomycin, 1% NEAA, and 1 mmol/L sodium pyruvate. The cells were incubated overnight at 37°C with 5% CO2 and a relative humidity of 90%. Once the cells reached approximately 80% confluence, they were treated with a 0.25% trypsin/EDTA solution to dissociate the cells. Subsequently, the cells were seeded at a density of 5 × 10^5 cells/cm^2 in Millicell-96 well plates (Millipore, Burlington, USA). Prior to conducting the experiments, the integrity of the cell monolayer was confirmed by measuring transepithelial electrical resistance (TEER) using a Millicell ERS® meter (Millipore, Burlington, USA). A TEER value greater than 400 Ω cm^2 was required to ensure the formation and preservation of tight junctions.
(§2) The ability of ammoxetine to inhibit the growth of MDCK-MDR1 cells was evaluated using the MTT assay. Ammoxetine was diluted with transport buffer [Hank’s balanced salt solution (HBSS) containing 6.0 g HEPES, pH 7.2–7.4] from a stock solution (2 mg/mL) dissolved in HBSS to create a series of standard concentrations: 1.28, 6.4, 32, 160, 800 ng/mL and 4, 20, 100, 500 μg/mL. Prior to the assay, the cell culture medium was aspirated and replaced with different standard concentrations of ammoxetine (100 μL/well, n = 6). The cells were then incubated at 37°C for 3 h. Following the incubation, 20 μL of MTT solution (5 mg/mL) was added to each well, and the incubation was continued for 4 h. Subsequently, the solution in each well was discarded, and 150 μL of dimethyl sulfoxide was added. After vortexing for 10 min, the absorbance was measured at 570 nm using a Varioskan® Flash multimode reader (Thermo Fisher Scientific, Waltham, USA). Blank control solutions, consisting of HBSS without ammoxetine, were also applied to the cells. The absorbance values were then used to calculate the relative growth rate (RGR, %) of cells using the formula RGR = ODammoxetine/ODblank × 100%, where ODammoxetine and ODblank represent the mean absorbance values of six parallel measurements in the ammoxetine and blank control solutions, respectively ([Ji et al., 2024]). The Prism 5 software (GraphPad Software, Inc., San Diego, USA) was used to determine the 50% toxic concentration (TC50) value of ammoxetine.

MDCK-MDR1 cells = assay: MTT cytotoxicity assay; type: cell-based, canine
Description: as §1, §2

[1] = Bidirectional permeability measurements in MDCK-MDR1 monolayers; type: in vitro ADME, canine; conditions: dog, MDCK-MDR1, 2 h
Description: as §1
Cell monolayers were preincubated with HBSS for 15 min at 37°C. To measure the A→B (apical side to basolateral side of monolayer) transporter, 400 μL of ammoxetine solution was added to the A-side (donor chamber), and 1,200 μL of HBSS solution was added to the B-side (receiver chamber). The B→A transporter was evaluated by adding 1,200 μL of ammoxetine solution to the B-side (donor chamber) and 400 μL of HBSS solution to the A-side (receiver chamber). At 0 h, 50 μL of the solution was taken from the donor chamber, and aliquots of 50 μL were taken from the receiver chamber at 15, 30, 45, 60, 90, and 120-min time intervals. The collected aliquots were immediately replaced with equal volumes of fresh blank HBSS. Ammoxetine transport was studied at three concentrations: 0.2, 1, and 5 μg/mL, with each concentration evaluated in triplicate. […] Ammoxetine samples collected from the receiver chambers at different time points were mixed with 150 μL of acetonitrile/methanol (1:1, v/v) solution containing 50 ng/mL L-phencynonate (IS). The mixtures were then vortexed for 1 min and centrifuged for 10 min at 13,800×g. The supernatants were analyzed using an LC-MS-MS method.
The apparent permeability coefficient ( Papp , cm/s) values for ammoxetine were determined using Equation 1: Papp=dQ/dt/A×C0 (1)
Here, dQ/dt represents the amount of drug transported to the receiver chamber within a specific time period, A is the surface area of the cell monolayer (=0.33 cm^2), and C0 is the initial concentration of ammoxetine.
In general, the involvement of a P-gp-mediated efflux mechanism was indicated if the efflux ratio ( ER ) value exceeded 1.5 ([Langthaler et al., 2024]). […]

[2] = PPB assay by ultrafiltration, rat plasma; type: in vitro ADME, rats
Description: (§3) The PPB of ammoxetine was determined using the ultrafiltration method. Triplicate samples of rat, dog, or human plasma were spiked with ammoxetine at three final concentrations (50, 150, and 450 ng/mL). The spiked plasma samples were then incubated in a 37°C air-bath shaker for 1 h until equilibrium was reached. After incubation, 400 μL of the plasma samples were transferred to pre-saturated ultrafiltration devices. These devices were subsequently centrifuged at 13,800×g and 20°C for 20 min to separate the unbound ammoxetine. 100 μL of the test samples were taken and mixed with 100 μL of the IS, L-phencynonate (50 ng/mL), and 300 μL of methanol. Following centrifugation at 13,800×g for 10 min, the supernatants were used to determine the total and free concentrations of ammoxetine in the plasma (C t , C f ) using an LC-MS-MS method. The PPB rate (%) of ammoxetine was calculated by dividing (C t −C f ) by C t .

[3] = PPB assay by ultrafiltration, dog plasma; type: in vitro ADME, beagle dogs; conditions: beagle
Description: as §3

[4] = 50 ng/mL, read-out: Percentage of ammoxetine-protein binding rate (%) (converted)
[5] = 150 ng/mL, read-out: Percentage of ammoxetine-protein binding rate (%) (converted)
[6] = 450 ng/mL, read-out: Percentage of ammoxetine-protein binding rate (%) (converted)
[7] = approximate range over 50-450 ng/mL, read-out: PPB rate

- Papp A→B at 2 h, 0.2 μg/mL ([1]; 0.2 μg/mL): 15.8 ± 2.83 ×10⁻⁶ cm/s
- Papp B→A at 2 h, 0.2 μg/mL ([1]; 0.2 μg/mL): 26.5 ± 5.3 ×10⁻⁶ cm/s
- Papp A→B at 2 h, 1 μg/mL ([1]; 1 μg/mL): 6.61 ± 0.555 ×10⁻⁶ cm/s
- Papp B→A at 2 h, 1 μg/mL ([1]; 1 μg/mL): 11.5 ± 2.93 ×10⁻⁶ cm/s
- Papp A→B at 2 h, 5 μg/mL ([1]; 5 μg/mL): 13.2 ± 1.26 ×10⁻⁶ cm/s
- Papp B→A at 2 h, 5 μg/mL ([1]; 5 μg/mL): 25.2 ± 3.49 ×10⁻⁶ cm/s
- fraction unbound at 1 h, 50 ng/mL [2, 4]: 0.338
- fraction unbound at 1 h, 150 ng/mL [2, 5]: 0.447
- fraction unbound at 1 h, 450 ng/mL [2, 6]: 0.506
- fraction unbound at 1 h [2, 7]: 0.4 to 0.5
- fraction unbound at 1 h, 50 ng/mL [3, 4]: 0.464
- fraction unbound at 1 h, 150 ng/mL [3, 5]: 0.468
- fraction unbound at 1 h, 450 ng/mL [3, 6]: 0.423
- fraction unbound at 1 h [3, 7]: 0.4 to 0.5
SMILES: CNCC[C@H](Oc1cccc2c1OCO2)c1cccs1 [ammoxetine]
- inhibition at 3 h (MTT cytotoxicity assay): < 10%
- RGR (%) (MDCK-MDR1 cells; 0.16 μg/mL): 103.48±9.43%
- RGR (%) (MDCK-MDR1 cells; 0.80 μg/mL): 102.55±18.09%
- RGR (%) (MDCK-MDR1 cells; 4 μg/mL): 103.59±20.82%
- RGR (%) (MDCK-MDR1 cells; 20 μg/mL): 89.16±12.89%
- RGR (%) (MDCK-MDR1 cells; 100 μg/mL): 55.53±7.87%
- RGR (%) (MDCK-MDR1 cells; 500 μg/mL): 24.49±2.36%
- RGR (%) (MDCK-MDR1 cells; 1.28×e-3 μg/mL): 113.13±22.65%
- RGR (%) (MDCK-MDR1 cells; 3.20×e-2 μg/mL): 103.57±14.18%
- RGR (%) (MDCK-MDR1 cells; 6.40×e-3 μg/mL): 114.88±14.68%
- TC50 (MDCK-MDR1 cells; 50% toxic concentration from ln concentration-RGR curve): 79.76 ± 18.94 µg/mL (≈ 274 µM)
